Data: US20140200175A1, “SUPPRESSION OF TOXIN PRODUCTION OF C[…]” (University of Central Florida Research Foundation, Inc., priority 2012, published 2014)
Entries after “also recorded” stand apart in the source; their conditions may differ.

Columns and labels:
C. difficile (VPI10463) [1] = assay: Growth curve of C. difficile in rich medium (TYGSe), optical density at 600 nm; format: cell-based, Clostridium difficile; conditions: VPI10463, rich medium plus 16.7 mM amino acid, 72 hour growth period
tcdA = conditions: 16.7 mM, mRNA harvested after 72 hours of growth
tcdB = conditions: 16.7 mM, mRNA harvested after 72 hours of growth
[2] = tested on: C. difficile (VPI10463) toxin A and toxin B; assay: Extracellular toxin in cell free supernatants by SDS-PAGE with GelCode Blue staining; format: cell-based, Clostridium difficile; conditions: 16.7 mM; for toxin levels in media supernatants (band larger than 225 kDa): 72 hour growth period, 7.5% gel, versus control
Protocol: FIG. 2 illustrates that toxin production occurs earlier and is increased with the addition of L-proline or glycine to the culture media of C. difficile, but is diminished with L-hydroxyproline. C. difficile (VPI10463) culture media was collected by centrifugation at the indicated time points. Cell free supernatants were filtered (0.2 μm filter) and equal volumes (50 μL) were separated by SDS-PAGE and stained overnight with GelCode Blue. Gel migration was compared with that of purified toxin A (List Biologicals).
For analysis of extracellular toxins, 50 μL aliquots of cell free supernatant from each C. difficile culture across a 72 hour growth study was analyzed by sodium dodecyl sulfate-polyacrylamide gel electrophoresis (SDS-PAGE) (7.5% polyacrylamide). The separated proteins were visualized after staining overnight with GelCode Blue (Thermo Scientific, Waltham, Mass.).

C. difficile = conditions: added to the culture medium, concentration-dependent, reference (32); cited from earlier work
C. difficile spore = conditions: alongside taurocholate, reference (45); cited from earlier work
C. difficile (VPI10463) [3] = conditions: stationary phase (24 to 72 hours), 16.7 mM; versus control and the other amino acids
Protocol: Optical density (FIG. 1A) was followed for 72 hours after inoculation. Total protein (FIG. 1B) and extracellular protein (FIG. 1C) were quantified in cell free supernatants according to the method described by Bradford (46).
Optical density measurements of cultures at 600 nm were determined using a Molecular Devices SpectraMax 190 96-well plate reader at the times indicated for each experiment. Cultures were centrifuged at 16,100×g for five minutes. The resulting cell free supernatants were filtered (0.2 μm) and assayed for protein as described by Bradford (46) using bovine serum albumin (Thermo Scientific, Rockford, Ill.) as a standard.

Row | SMILES | growth (in words) (C. difficile (VPI10463) [1]) | reduction in tcdA transcription (tcdA; relative to control cells) [%] | reduction in tcdB transcription (tcdB; relative to control cells) [%] | toxin levels in media supernatants (band larger than 225 kDa) [2] | intracellular toxin levels (C. difficile) | spore germination (C. difficile spore) | tcdA transcript relative to control cells (tcdA) | extracellular protein levels (C. difficile (VPI10463) [3]) | tcdB transcript relative to control cells (tcdB) | toxin produced earlier ([2]; onset of toxin band)
1 | O=C(O)[C@@H]1CC(O)CN1 (stereo partly drawn) [L-hydroxyproline, L-4-hydroxyproline] | largest increase in growth; also recorded: comparable growth | ≥ 75 | ≥ 75 | no band corresponding to toxin was visible |  |  |  |  |  | 
2 | N[C@@H](CS)C(=O)O [L-cysteine] |  |  |  |  | significantly reduced |  |  |  |  | 
3 | NCC(=O)O [glycine] |  |  |  | higher toxin levels than the control |  | potent spore co-germinant | nine | significantly higher | nine | approximately 24 hours
4 | O=C(O)[C@@H]1CCCN1 [L-proline] |  |  |  | higher toxin levels than the control | significantly reduced |  | approximately three |  | approximately three | 
